The text below walks through data of patent publication US9914709B2, “Compositions and methods of treating HIV-1 infections using same” (YALE UNIVERSITY, priority 2013, dated 2018).

Data set [1] relates to HIV-1 Y181C variant. To be noted: MT-4 cells; Janssen 2005 / Ludovici 2001; read-out: previously reported EC50, Y181C; cited from earlier work.
For data set [2], the system named is wild-type HIV-1. To be noted: MT-4 cells; Janssen 2005 / Ludovici 2001; read-out: previously reported EC50, wild-type; cited from earlier work.
The subject of data set [3] is HIV-1 K103N/Y181C variant. In words: microbe, parasite or virus in culture. Format: cell-based.
The subject of data set [4] is HIV-1 Y181C variant. In words: microbe, parasite or virus in culture. Format: cell-based.
Data set [5] relates to MT-2 human T-cells. In words: Cytotoxicity, inhibition of MT-2 cell growth. Particulars: read-out: cytotoxicity (CC50); Table 4; human MT-2 cells.
Data set [6] concerns HIV-1 K103N/Y181C variant. Particulars: MT-4 cells; Janssen 2005 / Ludovici 2001; read-out: previously reported EC50, K103N/Y181C; cited from earlier work.
The nature of data set [7]: Aqueous solubility, shake-flask method with UV detection. To be noted: shake-flask, 25° C. As to the method:
The compounds were dissolved in Britton-Robinson buffer and stirred in vials for 48 hours at 25° C. The pH of the buffer solutions was measured by a Corning General Purpose pH Combination probe (4136L21).
For measurement of aqueous solubility, the pH of the buffer solutions was measured by Corning Combination pH Electrodes (4136L21) pH meter with Ag/AgCl glass electrode. […] An Ika® RCT basic magnetic stirrer was used to mix the two phases.
The equilibrium solubility of the non-ionized form of the samples was determined by the shake flask method. For each reported solubility result, two or three independent shake-flask experiments were carried out in parallel. For each experiment the 5 mg of the solid was added to 5 mL of the buffer in a vial. […] The standards and samples were measured by UV spectrophotometry at the maximum wavelength of the individual compounds.

The conditions of data set [8]: literature values; cited from earlier work.
The nature of data set [9]: Cytotoxicity, inhibition of MT-2 cell growth. To be noted: human.
The nature of data set [10]: Aqueous solubility, literature reports. Format: physicochemical. To be noted: translated from 20 ng/mL at pH 7.0.

pEC50: −log10 of the molar value. In brackets after ≈: the same amount, converted by molar mass. Like-named read-outs stand apart in the source and are kept apart here. Where only a bound is given, the exact number is not on record here.

What is called CC50 is the concentration at which the toxic effect on the cells reaches its halfway point. Take `Cc1cc(C)c(Nc2ccnc(Nc3ccc(C#N)cc3)n2)c(C)c1` [Compound 10a, dapivirine, reference compound]: the pEC50 was 8.15 in data set [1]; 8.92 in [2]; 7.41 in data set [3] (Human immunodeficiency virus 1, MT2, read-out: EC50, K103N/Y181C variant); 7.41 in data set [3] (Human immunodeficiency virus 1, MT2, read-out: EC50 K103N/Y181C); 7.41 in data set [4] (Human immunodeficiency virus 1, MT2, read-out: EC50, Y181C variant); 7.41 in data set [4] (Human immunodeficiency virus 1, MT2, read-out: EC50 Y181C). Besides, in data set [6], the pEC50 is 7.27. Also, in data set [5], the cytotoxic concentration (CC50) was determined as 2000 nM.

For orientation: aqueous solubility means the concentration that dissolves in the medium under given conditions. In the case of `CN1C(C(=O)Nc2ccccn2)=C(O)c2ccccc2S1(=O)=O` [Piroxicam, reference compound], the “Aqueous Solubility (S)” value in data set [7] stood at 7.2 µg/mL. The aqueous solubility in data set [8] was 6.4 µg/mL (≈ 19.3 µM).

On to `Cc1ccnc2c1NC(=O)c1cccnc1N2C1CC1` [nevirapine], for which the CC50 in data set [5] and in [9] was above 100000 nM in each case.

On to `Cc1cc(/C=C/C#N)cc(C)c1Nc1ccnc(Nc2ccc(C#N)cc2)n1` [rilpivirine, reference compound], for which the “S” value in data set [10] came to 50 nM.
